Experimental data: patent publication US6287553A, “Skin care composition” (Unilever Home & Personal Care USA, division of Conopco, Inc., priority 1998, dated 2001)
“Also recorded” adds a separate entry of the source.

Key:
keratinocytes = assay: Keratinocyte SDS viability assay (Neutral Red); assay type: cell-based; conditions: 24 h, read-out: cell viability produced by SDS
Procedure: Keratinocytes were grown in 96 well plates to approximately 80% confluency in keratinocyte growth medium (KGM) which was then replaced with KGM without hydrocortisone for 24-48 hours. The cells were then treated with a concentration of sodium dodecyl sulphate (SDS) which will produce cell viability of approximately 50% ([…]). The test compounds "c9 t11 CLA" and "t10 c12 CLA" in table 7 are the same as the agents described above in Example 3. […] After incubating for 24 hours the medium was removed and the viability determined by the Neutral Red method. With this method the cells were incubated for 3 hours in KGM containing 25 μg/ml neutral red after which the medium was removed and the cells were then extracted with […] of 1% (v/v) acetic acid, 50% (v/v) ethanol for 30 min units. The absorbance of the extract at 562 nm was determined and the viability evaluated by reference to wells which contained neither SDS nor test compounds.

procollagen-I = assay: Immunohistochemical analysis of procollagen-I expression in photodamaged forearm skin after topical retinoic acid; assay type: in vivo, human (women)
Source text: (§1) Two groups of women were recruited with identical or nearly identical degrees of mild to moderate photodamage on each outer forearm. They were supplied with 0.05% retinoic acid in a moisturising base (Retinova®) and also with a colour matched moisturising cream with similar sensory characteristics (Dermacare® lotion) but no active ingredients as a placebo control. Each participant of the two groups applied the Retinova® to one outer forearm and placebo (Dermacare®) to the other outer forearm. Group 1 applied the products daily to their outer forearms for 14 weeks and the Group 2 applied the products to their outer forearms for 28 weeks. At the end of the studies two full thickness 4 mm punch biopsies were taken from the treated areas of each forearm. Immunohistochemical analysis of the biopsy tissue taken from the participants was performed to identify the effect of retinoic acid treatment on the expression of the skin extracellular matrix components decorin and procollagen-I as compared with the placebo treated forearms. The following procedure was followed:
(§2) Antibody dilution buffer for wax sections was composed of Tris Buffered Saline (TBS), 3% bovine serum albumin (BSA), 0.05% Triton X-100 and 0.05% sodium azide. Primary antibodies for procollagen-I (amino terminal) were obtained from Chemicon International Inc. (cat# MAB 1912, rat IgG1) and used on wax sections at a dilution of 1:800, overnight at 4° C. after the section had been pre-treated trypsin (0.5 mg/ml, 25 minutes, 37° C.). Primary antibodies for decorin were obtained from Biogenesis (rabbit polyclonal) and used on wax sections at a dilution of 1:800, overnight at 4° C. Anti-rat biotinylated secondary antibodies were obtained from DAKO (cat# E0468, rabbit polyclonal) was applied to wax sections at a dilution of 1:400. Anti-rabbit biotinylated secondary antibodies were obtained from Amersham (cat# RPN 1004, donkey polyclonal) was applied to wax sections at a dilution of 1:400. Streptavidin conjugated alkaline phosphatase was obtained from Zymed (cat# 43-4322) and used at a concentration of 1:2500. […]

decorin [1] = assay: Immunohistochemical analysis of decorin expression in photodamaged forearm skin after topical retinoic acid; assay type: in vivo, human (women)
Source text: as §1, §2

decorin [2] = assay: Decorin synthesis in human dermal fibroblasts (dot blot assay of conditioned medium); assay type: cell-based; conditions: Fibroblast, 24 h, read-out: upregulation of decorin synthesis
Procedure: Preparation of Dermal Fibroblast Conditioned Medium Primary human foreskin fibroblasts at passage 2 (P2) were seeded into 12-well plates at 10000 cells/cm^2 and maintained for 24 hours in an atmosphere of 5% carbon dioxide and 4% oxygen in Dulbeccos Modified Eagles Medium (DMEM) supplemented with 10% foetal calf serum. After this time the cells were washed with serum free DMEM and then incubated in fresh serum free DMEM for a further 60 hours. The fibroblast monolayers were then washed again with serum free DMEM. Test reagents and vehicle controls were added to the cells in triplicate in a final volume of 0.4 ml/well fresh serum free DMEM and incubated for a further 24 hours. This fibroblast conditioned medium was either analysed immediately or snap frozen in liquid nitrogen and stored at -70° C. for future analysis. The cells were then counted and data from the dot-blot analysis subsequently standardised to cell number.
Samples of conditioned medium from dermal fibroblasts treated with vehicle (as a control) or test reagents were supplemented with 20 mM dithiothreitol (1:10 dilution of 200 mM stock solution) and 0.1% sodium dodecylsulphate (1:100 dilution of 10% stock solution), mixed well and then incubated at 75° C. for 2 minutes. […]

skin = conditions: topical treatment of skin; Griffiths et al. 1993; cited from earlier work
[3] = Group 1 after 14 weeks, 0.05% retinoic acid (Retinova) daily vs placebo, total 16 participants
[4] = Group 2 after 28 weeks, 0.05% retinoic acid (Retinova) vs placebo, total 15 participants
[5] = topical retinoic acid (Retinova) vs placebo (Dermacare)

| SMILES | viability at 5 µg/mL (keratinocytes) [%] | No. of Participants showing marked increase in expression of procollagen-I (procollagen-I; [3]) | No. of Participants showing marked increase in expression of procollagen-I (procollagen-I; [4]) | procollagen-I expression in photodamaged skin (procollagen-I; [5]) | No. of Participants showing marked increase in expression of decorin (decorin [1]; [3]) | No. of Participants showing marked increase in expression of decorin (decorin [1]; [4]) | decorin expression in photodamaged skin (decorin [1]; [5]) | activity at 1 µM (decorin [2]) [%] | wrinkle effacement / dermal repair (skin) |
| --- | --- | --- | --- | --- | --- | --- | --- | --- | --- |
| CCCCCCCCCCCCOS(=O)(=O)[O-].[Na+] [sodium dodecyl sulphate (SDS), sodium dodecyl sulphate] | ~50 | – | – | – | – | – | – | – | – |
| CC1=C(/C=C/C(C)=C/C=C/C(C)=C/C(=O)O)C(C)(C)CCC1 [Retinoic acid, retinoic acid] | – | 9 No. of Participants | 10 No. of Participants | marked upregulation | 10 No. of Participants | 15 No. of Participants | marked upregulation | 138 ± 14 | induces dermal repair of photodamaged skin; also recorded: wrinkle effacement and dermal repair following topical treatment of skin with retinoic acid arises through new collagen deposition and synthesis in the skin |
